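Compound exposure: 48 hours, 5 concentrations, 96-well plates. Abbreviation: GI50, concentration required for 50% inhibition of growth. TGI denotes the concentration required for complete inhibition of growth.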
How the values were obtained:
Test in all cases: NCI-60 cell line screen, 48 h
[1] = test system: 786-0 renal
[2] = test system: A549 NSCLC
[3] = test system: ACHN renal
[4] = test system: BT-549 breast
[5] = test system: CAKI-1 renal
[6] = test system: CCRF-CEM leukemia
[7] = test system: COLO 205 colon
[8] = test system: DU-145 prostate
[9] = test system: EKVX NSCLC
[10] = test system: HCC-2998 colon
[11] = test system: HCT-116 colon
[12] = test system: HCT-15 colon
[13] = test system: HOP-62 NSCLC
[14] = test system: HOP-92 NSCLC
[15] = test system: HS 578T breast
[16] = test system: HT29 colon
[17] = test system: IGROV1 ovarian
[18] = test system: K-562 leukemia
[19] = test system: KM12 colon
[20] = test system: LOX IMVI melanoma
[21] = test system: M14 melanoma
[22] = test system: MALME-3M melanoma
[23] = test system: MCF7 breast
[24] = test system: MDA-MB-231 breast
[25] = test system: MDA-MB-435
[26] = test system: MOLT-4 leukemia
[27] = test system: NCI-H226 lung
[28] = test system: NCI-H23 lung
[29] = test system: NCI-H460 lung
[30] = test system: NCI-H522 lung
[31] = test system: NCI/ADR-RES ovarian
[32] = test system: OVCAR-3 ovarian
[33] = test system: OVCAR-4 ovarian
[34] = test system: OVCAR-5 ovarian
[35] = test system: OVCAR-8 ovarian
[36] = test system: PC-3 prostate
[37] = test system: RPMI-8226 leukemia
[38] = test system: RXF 393 renal
[39] = test system: SF-268 CNS
[40] = test system: SF-295 CNS
[41] = test system: SF-539 CNS
[42] = test system: SK-MEL-2 melanoma
[43] = test system: SK-MEL-28 melanoma
[44] = test system: SK-MEL-5 melanoma
[45] = test system: SK-OV-3 ovarian
[46] = test system: SN12C renal
[47] = test system: SNB-19 CNS
[48] = test system: SNB-75 CNS
[49] = test system: SW-620 colon
[50] = test system: T-47D breast
[51] = test system: TK-10 renal
[52] = test system: U251 CNS
[53] = test system: UACC-257 melanoma
[54] = test system: UACC-62 melanoma
[55] = test system: UO-31 renal
[56] = test system: A498 renal
[57] = test system: HL-60(TB) leukemia

Work on `C=CCCCCCCCCCCC1(O)C=CC2=[N+](CCCCCN=C(N)N)CCCN21` (stereo not given) yielded a GI50 [1] of 7.47 µM, a TGI [1] of 29.8 µM and a GI50 [2] of 5.06 µM. For the same molecule, the TGI [2] was 24.6 µM, the GI50 [3] was 11.5 µM and the TGI [3] was 24.5 µM. The GI50 [4] was 3.56 µM, the TGI [4] was 13.2 µM and the GI50 [5] was 3.22 µM. It also gave a TGI [5] of 14.1 µM, a GI50 [6] of 8.57 µM and a TGI [6] of 40.3 µM. The GI50 [7] was 2.78 µM, the TGI [7] was 13.9 µM and the GI50 [8] was 12.2 µM. For the same molecule, the TGI [8] was 26.6 µM, the GI50 [9] was 10.8 µM and the TGI [9] was 26.7 µM. The GI50 [10] was 2.66 µM, the TGI [10] was 24.6 µM and the GI50 [11] was 12.4 µM. The TGI [11] was over 45.2 µM, the GI50 [12] was 4.87 µM and the TGI [12] was 18.6 µM. It also gave a GI50 [13] of 8.68 µM, a TGI [13] of 32 µM and a TGI [14] of 0.759 µM. The GI50 [15] was 3.82 µM, the TGI [15] was 13.1 µM and the GI50 [16] was 3.87 µM. It also gave a TGI [16] of 22.7 µM, a GI50 [17] of 10.9 µM and a TGI [17] of 30.1 µM. The GI50 [18] was 2760 nM, the TGI [18] was 15.9 µM and the GI50 [19] was 3420 nM. It also gave a TGI [19] of 18.7 µM, a GI50 [20] of 6.3 µM and a TGI [20] of 26 µM. It also gave a GI50 [21] of 22.8 µM, a TGI [21] of over 51.5 µM and a GI50 [22] of 2.52 µM. It also gave a TGI [22] of 10.9 µM, a GI50 [23] of 12.3 µM and a TGI [23] of 40.8 µM. For the same molecule, the GI50 [24] was 9.98 µM, the TGI [24] was 30.2 µM and the GI50 [25] was 12.3 µM. The TGI [25] was 31.1 µM, the GI50 [26] was 4.4 µM and the TGI [26] was 20.4 µM. For the same molecule, the GI50 [27] was 3.86 µM, the TGI [27] was 21 µM and the GI50 [28] was 12.9 µM. It also gave a TGI [28] of 32.3 µM, a GI50 [29] of 4.38 µM and a TGI [29] of 19.9 µM. The GI50 [30] was 3.6 µM, the TGI [30] was 18.4 µM and the GI50 [31] was 22.2 µM. The TGI [31] was 85.6 µM, the GI50 [32] was 13 µM and the TGI [32] was 36.8 µM. It also gave a GI50 [33] of 4.84 µM, a TGI [33] of 19.9 µM and a GI50 [34] of 6.25 µM. It also gave a TGI [34] of 20.8 µM, a GI50 [35] of 7.24 µM and a TGI [35] of 26.1 µM. The GI50 [36] was 0.466 µM, the TGI [36] was 6.39 µM and the GI50 [37] was 2610 nM. It also gave a TGI [37] of 29.5 µM, a GI50 [38] of 3.19 µM and a TGI [38] of 19.3 µM. It also gave a GI50 [39] of 7.7 µM, a TGI [39] of 26.7 µM and a GI50 [40] of 7.2 µM. For the same molecule, the TGI [40] was 24.9 µM, the GI50 [41] was 2.84 µM and the TGI [41] was 7.71 µM. For the same molecule, the GI50 [42] was 21.3 µM, the TGI [42] was 47.2 µM and the GI50 [43] was 13.6 µM. It also gave a TGI [43] of 31.8 µM, a GI50 [44] of 9.93 µM and a TGI [44] of 25.1 µM. It also gave a GI50 [45] of 19.1 µM, a TGI [45] of 38.5 µM and a TGI [46] of 11.3 µM. It also gave a GI50 [47] of 5.86 µM, a TGI [47] of 30.4 µM and a GI50 [48] of 8.62 µM. For the same molecule, the TGI [48] was 25.9 µM, the GI50 [49] was 8.11 µM and the TGI [49] was 24.2 µM. The GI50 [50] was 22 µM, the TGI [50] was 55.6 µM and the GI50 [51] was 1.33 µM. It also gave a TGI [51] of 4.56 µM, a GI50 [52] of 1.49 µM and a TGI [52] of 13.9 µM. The GI50 [53] was 22.7 µM, the TGI [53] was over 55.7 µM and the GI50 [54] was 13.3 µM. The TGI [54] was 28.9 µM, the GI50 [55] was 17 µM and the TGI [55] was 36.5 µM.
`COc1ccncc1C#Cc1cncc(C(=O)Nc2ccc(CN3CCN(C)CC3)c(C(F)(F)F)c2)c1` gave a GI50 [1] of 35.8 µM, a TGI [1] of over 100 µM and a GI50 [56] of 17.4 µM. The TGI [56] was 79.5 µM, the GI50 [2] was 27.4 µM and the TGI [2] was over 100 µM. For the same molecule, the GI50 [3] was 19.3 µM, the TGI [3] was over 100 µM and the GI50 [4] was 21.1 µM. It also gave a TGI [4] of over 100 µM, a GI50 [5] of 22.6 µM and a TGI [5] of over 100 µM. It also gave a GI50 [6] of 28.4 µM, a TGI [6] of over 100 µM and a GI50 [7] of 11.2 µM. For the same molecule, the TGI [7] was 64 µM, the GI50 [8] was 25.7 µM and the TGI [8] was over 100 µM. For the same molecule, the GI50 [9] was 24.7 µM, the TGI [9] was over 100 µM and the GI50 [10] was 24.8 µM. For the same molecule, the TGI [10] was over 100 µM, the GI50 [11] was 6.72 µM and the TGI [11] was over 100 µM. The GI50 [12] was 19.8 µM, the TGI [12] was over 100 µM and the GI50 [57] was 7.4 µM. For the same molecule, the TGI [57] was 46.7 µM, the GI50 [13] was 20.9 µM and the TGI [13] was over 100 µM. It also gave a GI50 [14] of 4.83 µM, a TGI [14] of 57.2 µM and a GI50 [15] of 7.75 µM. It also gave a TGI [15] of 52.5 µM, a GI50 [16] of 9.33 µM and a TGI [16] of over 100 µM. The GI50 [17] was 8.57 µM, the TGI [17] was 84.2 µM and the GI50 [18] was 22.9 nM. The TGI [18] was over 100 µM, the GI50 [19] was 326 nM and the TGI [19] was 64.5 µM. The GI50 [20] was 5.79 µM, the TGI [20] was 25.7 µM and the GI50 [21] was 10.1 µM. It also gave a TGI [21] of 39.6 µM, a GI50 [22] of 4.3 µM and a TGI [22] of 23.3 µM. The GI50 [23] was 11.1 µM, the TGI [23] was 94.6 µM and the GI50 [24] was 7.71 µM. For the same molecule, the TGI [24] was 85.4 µM, the GI50 [25] was 15 µM and the TGI [25] was over 100 µM. For the same molecule, the GI50 [26] was 14.5 µM, the TGI [26] was over 100 µM and the GI50 [27] was 4.6 µM. The TGI [27] was over 100 µM, the GI50 [28] was 16.3 µM and the TGI [28] was over 100 µM. It also gave a GI50 [29] of 16.1 µM, a TGI [29] of 71 µM and a GI50 [30] of 11.4 µM. The TGI [30] was 46 µM, the GI50 [31] was 33.4 µM and the TGI [31] was over 100 µM. The GI50 [32] was 21.6 µM, the TGI [32] was 89.7 µM and the GI50 [33] was 6.07 µM. It also gave a TGI [33] of over 100 µM, a GI50 [34] of 23 µM and a TGI [34] of over 100 µM. The GI50 [35] was 27.1 µM, the TGI [35] was over 100 µM and the GI50 [36] was 27.3 µM. It also gave a TGI [36] of over 100 µM, a GI50 [38] of 15.7 µM and a TGI [38] of 49.5 µM. It also gave a GI50 [39] of 17.5 µM, a TGI [39] of 66.2 µM and a GI50 [40] of 37.3 µM. It also gave a TGI [40] of over 100 µM, a GI50 [41] of 5.39 µM and a TGI [41] of 66.6 µM. It also gave a GI50 [42] of 13.3 µM, a TGI [42] of 48.3 µM and a GI50 [43] of 13.3 µM. For the same molecule, the TGI [43] was over 100 µM, the GI50 [44] was 39 µM and the TGI [44] was over 100 µM. For the same molecule, the GI50 [45] was 28.9 µM, the TGI [45] was over 100 µM and the GI50 [46] was 16.8 µM. It also gave a TGI [46] of over 100 µM, a GI50 [47] of 47 µM and a TGI [47] of over 100 µM. It also gave a GI50 [48] of 25.9 µM, a TGI [48] of over 100 µM and a GI50 [49] of 14.6 µM. For the same molecule, the TGI [49] was 64.3 µM, the GI50 [50] was 89.1 µM and the TGI [50] was over 100 µM. For the same molecule, the GI50 [51] was 47.1 µM, the TGI [51] was over 100 µM and the GI50 [52] was 35.6 µM. It also gave a TGI [52] of over 100 µM, a GI50 [53] of 21.5 µM and a TGI [53] of over 100 µM. The GI50 [54] was 13.6 µM, the TGI [54] was over 100 µM and the GI50 [55] was 15.4 µM. It also gave a TGI [55] of over 100 µM.
